The record followed here is publication PMC7383625, “Sequence‐Based Prediction of Promiscuous Acyltransferase Activity in Hydrolases” (Angewandte Chemie (International Ed. in English), 2020).

What all share (type): biochemical
The target of assay [1] is T1, Est8 (uncultured bacterium, UniProt Z9EH37ATT5).
T1 construct: bHSL esterase with N-terminal cap domain; crystal structure solved here
T1 sequence (Z9EH37ATT5 1-297): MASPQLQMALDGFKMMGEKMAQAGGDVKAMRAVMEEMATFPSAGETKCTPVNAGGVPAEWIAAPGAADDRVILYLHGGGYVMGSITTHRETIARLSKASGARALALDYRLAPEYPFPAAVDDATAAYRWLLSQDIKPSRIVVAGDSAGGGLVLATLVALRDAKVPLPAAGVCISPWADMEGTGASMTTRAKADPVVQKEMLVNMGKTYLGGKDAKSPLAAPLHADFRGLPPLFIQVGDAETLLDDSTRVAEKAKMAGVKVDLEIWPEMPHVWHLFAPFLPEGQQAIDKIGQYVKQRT
The experiment in a line: GC of 2-phenylethyl acetate formation. The following applies: acyl acceptor, 20 mM; vinyl acetate 200 mM as acyl donor; 200 mM buffer at pH optimum.

Assay [2] has as its target T2, 3K6K (uncultured bacterium, UniProt Z9ICY0V5A2).
T2 construct: named only by PDB code; construct in supplement
T2 sequence (Z9ICY0V5A2 15-328): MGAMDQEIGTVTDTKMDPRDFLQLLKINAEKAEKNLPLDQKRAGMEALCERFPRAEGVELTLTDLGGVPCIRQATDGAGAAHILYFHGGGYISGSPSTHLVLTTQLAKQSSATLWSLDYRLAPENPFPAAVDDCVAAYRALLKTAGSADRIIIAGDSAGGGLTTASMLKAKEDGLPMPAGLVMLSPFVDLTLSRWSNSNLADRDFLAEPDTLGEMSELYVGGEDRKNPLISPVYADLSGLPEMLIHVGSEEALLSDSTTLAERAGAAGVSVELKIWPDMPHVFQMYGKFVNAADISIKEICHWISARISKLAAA
The experiment in a line: colorimetric pNPA acyltransferase assay, pNP release at […] nm. The following applies: acyl donor; benzyl alcohol or 2-phenylethanol as acyl acceptor.

Assay [3] addresses T3, 3FAK (uncultured bacterium, UniProt Q0GMU2).
T3 construct: named only by PDB code; construct in supplement
T3 sequence (Q0GMU2 with tags, fused parts or gaps): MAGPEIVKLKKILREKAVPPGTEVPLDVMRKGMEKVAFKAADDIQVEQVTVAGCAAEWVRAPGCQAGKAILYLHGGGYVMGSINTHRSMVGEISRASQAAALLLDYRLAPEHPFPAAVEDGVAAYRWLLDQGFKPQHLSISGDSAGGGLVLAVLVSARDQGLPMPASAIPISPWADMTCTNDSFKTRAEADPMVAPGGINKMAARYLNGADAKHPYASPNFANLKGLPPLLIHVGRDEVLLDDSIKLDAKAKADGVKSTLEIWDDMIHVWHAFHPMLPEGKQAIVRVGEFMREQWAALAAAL
The description is as above. The following applies: acyl donor; benzyl alcohol or 2-phenylethanol as acyl acceptor.

Assay [4] addresses T4, 4XVC (uncultured bacterium, UniProt Z9PJA9OM60).
T4 construct: named only by PDB code; construct in supplement
T4 sequence (Z9PJA9OM60 21-317): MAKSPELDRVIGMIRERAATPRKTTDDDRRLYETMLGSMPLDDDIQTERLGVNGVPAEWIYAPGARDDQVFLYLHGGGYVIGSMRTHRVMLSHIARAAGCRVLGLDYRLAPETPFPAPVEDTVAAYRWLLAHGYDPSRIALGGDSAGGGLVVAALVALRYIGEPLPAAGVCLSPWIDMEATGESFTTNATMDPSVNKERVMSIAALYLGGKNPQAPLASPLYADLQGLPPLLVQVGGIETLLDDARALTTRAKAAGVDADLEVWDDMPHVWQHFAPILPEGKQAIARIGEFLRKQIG
The description is as above. The following applies: acyl donor; benzyl alcohol or 2-phenylethanol as acyl acceptor.

For assay [5], the target named is T5, 3ZWQ (Pyrobaculum calidifontis, UniProt A3MVR4).
T5 construct: gene Pcal_1307; named only by PDB code; construct in supplement
T5 sequence (A3MVR4 1-313): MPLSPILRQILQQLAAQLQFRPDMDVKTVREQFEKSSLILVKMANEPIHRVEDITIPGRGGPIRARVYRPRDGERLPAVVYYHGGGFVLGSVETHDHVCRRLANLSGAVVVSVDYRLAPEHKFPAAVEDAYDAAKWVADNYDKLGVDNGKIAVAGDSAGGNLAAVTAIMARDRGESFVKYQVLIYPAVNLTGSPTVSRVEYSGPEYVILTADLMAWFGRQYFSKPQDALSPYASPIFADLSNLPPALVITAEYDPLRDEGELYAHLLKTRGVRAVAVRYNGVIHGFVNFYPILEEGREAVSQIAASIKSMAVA
The description is as above. The following applies: acyl donor; benzyl alcohol or 2-phenylethanol as acyl acceptor.

Assay [6] has as its target T1, Est8. Described as above. The conditions noted are these: acyl donor; benzyl alcohol or 2-phenylethanol as acyl acceptor.

Turning to `OCCc1ccccc1` [2-phenylethanol], the “GC of 2-phenylethyl acetate formation” value in assay [1] is reported as “For Est8, product hydrolysis became more dominant than acyl transfer quickly”.

Take `CC(=O)Oc1ccc([N+](=O)[O-])cc1` [pNPA]: the “colorimetric pNPA acyltransferase assay, pNP release at 405 nm” value in assay [2] was “reactions were carried out for Est8 and its homologues using both benzyl alcohol”; in assay [3], “reactions were carried out for Est8 and its homologues using both benzyl alcohol”; in assay [4] it was “reactions were carried out for Est8 and its homologues using both benzyl alcohol”; in assay [5] it was 3ZWQ showed three‐fold higher acyltransferase activity with benzyl alcohol, outperforming 1EVQ; in assay [6] it was “reactions were carried out for Est8 and its homologues using both benzyl alcohol”.
